Where a chain is given by its changes, count along the chain named. Where two headings read alike, the source gives them in different places.
Key:
Format in all cases: cell-based
AR protein [1] = target: T1, AR protein (Homo sapiens, UniProt P10275, T878A); assay: Degradation of AR protein in LNCaP cells (Western blot); conditions: LNCaP cells, 8 hours, Western blot grayscale, GAPDH internal reference; for inhibition at 0.01 µM: compound 10 nM, read-out: Degradation rates of the AR protein in LNCaP cells, 10 nM (%); for inhibition at 0.1 µM: compound 100 nM, read-out: Degradation rates of the AR protein in LNCaP cells, 100 nM (%)
T1 construct: degradation activity of the compounds disclosed in the present disclosure on AR protein in LNCaP cells; host or cells: LNCaP FGC
T1 sequence (P10275 1-920 T878A): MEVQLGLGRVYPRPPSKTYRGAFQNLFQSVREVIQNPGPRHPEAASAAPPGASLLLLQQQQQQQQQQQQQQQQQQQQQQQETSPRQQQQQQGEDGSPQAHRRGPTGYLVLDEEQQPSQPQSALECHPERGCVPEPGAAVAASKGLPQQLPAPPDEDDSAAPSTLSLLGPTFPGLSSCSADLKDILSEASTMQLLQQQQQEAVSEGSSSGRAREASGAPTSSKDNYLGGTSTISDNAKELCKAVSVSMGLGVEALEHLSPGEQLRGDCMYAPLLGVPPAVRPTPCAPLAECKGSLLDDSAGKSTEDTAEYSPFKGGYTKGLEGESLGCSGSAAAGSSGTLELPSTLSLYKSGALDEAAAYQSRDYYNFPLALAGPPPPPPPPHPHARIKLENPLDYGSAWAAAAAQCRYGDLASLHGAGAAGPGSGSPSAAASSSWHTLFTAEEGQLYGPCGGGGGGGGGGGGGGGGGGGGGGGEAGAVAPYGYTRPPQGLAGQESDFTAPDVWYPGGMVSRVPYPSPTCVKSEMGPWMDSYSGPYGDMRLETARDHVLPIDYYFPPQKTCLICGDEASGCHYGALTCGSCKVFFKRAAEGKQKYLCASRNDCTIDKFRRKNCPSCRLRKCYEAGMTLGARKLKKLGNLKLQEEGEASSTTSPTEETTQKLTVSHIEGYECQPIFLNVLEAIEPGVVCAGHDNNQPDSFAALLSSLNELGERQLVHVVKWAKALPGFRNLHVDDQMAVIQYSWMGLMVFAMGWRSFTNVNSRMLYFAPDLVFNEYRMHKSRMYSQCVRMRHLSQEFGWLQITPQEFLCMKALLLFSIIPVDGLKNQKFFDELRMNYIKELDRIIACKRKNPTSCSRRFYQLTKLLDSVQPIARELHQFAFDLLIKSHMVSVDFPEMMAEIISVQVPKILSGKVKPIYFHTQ
Procedure, shortened: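 Percent AR degradation was derived from GAPDH-normalised Western blot band intensities (infrared detection) in LNCaP lysates.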

AR protein [2] = target: T2, AR protein (Homo sapiens, UniProt P10275); assay: Degradation of AR protein in VCaP cells (Western blot); conditions: 8 hours; for inhibition at 0.01 µM: compound at 10 nM, read-out: Degradation rate of the AR protein in VCaP cells, 10 nM (%); for inhibition at 0.1 µM: compound at 100 nM, read-out: Degradation rate of the AR protein in VCaP cells, 100 nM (%)
T2 construct: degradation activity of the compounds disclosed in the present disclosure on AR protein in VCaP cells; host or cells: VCaP
T2 sequence (P10275 1-920): T1 sequence (P10275 1-920 T878A) with A878T
Procedure, shortened: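 Western blot readout: AR band grayscale normalised to GAPDH, used to derive degradation rate. Lysates came from VCaP cells exposed to compound for 8 h, with solvent controls run in parallel.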

VCaP cells = assay: Inhibition of proliferation of VCaP cells (WST-8); conditions: Homo sapiens; VCaP cells, 168 hours, WST-8 absorbance at 450 nm; read-out: IC50 for inhibiting the proliferation of VCaP cells
Procedure, shortened: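 Proliferation was read by WST-8 on day nine. Cells were VCaP FGC, seeded at 15000 cells per well in 10% FBS DMEM and kept at 37° C with 5% CO2.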

LNCaP FGC cells = assay: Inhibition of proliferation of LNCaP cells (WST-8); conditions: LNCaP FGC cells, 96 hours, WST-8 absorbance at 450 nm, read-out: IC50 for inhibiting the proliferation of LNCaP cells
Experimental: The cells were cultured in a cell culture incubator with 5% CO2 at 37° C. overnight. […] On the sixth day, 96 well plates were taken out, and 20 μL of WST-8 (Beytime, C0040) reagent was added to each well.

inhibition at 0.01 µM (AR protein [1]) [%] | inhibition at 0.1 µM (AR protein [1]) [%] | inhibition at 0.01 µM (AR protein [2]) [%] | inhibition at 0.1 µM (AR protein [2]) [%] | IC50 (VCaP cells) [nM] | IC50 (LNCaP FGC cells) [nM] | Compound | IC50 (LNCaP FGC cells; Homo sapiens, LNCaP, 96 h) [nM]
37 | 71 | 54 | 66 | 160 |  | N#Cc1ccc(O[C@H]2CC[C@H](NC(=O)c3ccc(N4CCC5(CC4)CC(N4CCC6(CC4)COc4cc7c(cc4C6)C(=O)N(C4CCC(=O)NC4=O)C7=O)C5)nn3)CC2)cc1Cl (stereo partly drawn) [Compound 71] | 500
35 | 61 | 7 | 63 | 270 |  | COc1cc(O[C@H]2C(C)(C)[C@H](NC(=O)c3ccc(N4CCC(F)(CN5CC6(CCc7cc8c(cc7O6)C(=O)N(C6CCC(=O)NC6=O)C8=O)C5)CC4)cc3)C2(C)C)ccc1C#N (stereo partly drawn) [Compound 269] | 11800
45 | 18 | 33 | 67 | > 90000 | 80100 | COC1(CN2CCC3(CCc4ccc5c(c4O3)CN(C3CCC(=O)NC3=O)C5=O)CC2)CCN(c2ccc(C(=O)N[C@H]3CC[C@H](Oc4ccc(C#N)c(Cl)c4)CC3)nn2)CC1 (stereo partly drawn) [Compound 167] | 
26 | 64 | 50 | 78 | 960 |  | COC1(CN2CCC3(CC2)COc2cc4c(cc2C3)C(=O)N(C2CCC(=O)NC2=O)C4=O)CCN(c2ccc(C(=O)NC3CCC(Oc4ccc(C#N)c(Cl)c4)CC3)nn2)CC1 (stereo not drawn) [Compound 69] | 390
1 | 1 | -4 | 26 | 3170 |  | N#Cc1ccc(O[C@H]2CC[C@H](NC(=O)c3ccc(N4CCC5(CCC(N6CCC7(CC6)COc6ccc8c(c6C7)C(=O)N(C6CCC(=O)NC6=O)C8)CC5)CC4)nn3)CC2)cc1Cl (stereo partly drawn) [Compound 149] | 3730
43 | 22 | 16 | 26 | 6800 |  | N#Cc1ccc(O[C@H]2CC[C@H](NC(=O)c3ccc(N4CCC5(CC4)COc4cc6c(cc45)C(=O)N(C4CCC(=O)NC4=O)C6=O)nn3)CC2)cc1Cl (stereo partly drawn) [Compound 52] | 4500
42 | 40 | 47 | 81 | 2 |  | COc1cc(O[C@H]2C(C)(C)[C@H](NC(=O)c3ccc(N4CCC(CN5CC6(CCc7cc8c(cc7O6)CN(C6CCC(=O)NC6=O)C8=O)C5)CC4)cc3)C2(C)C)ccc1C#N (stereo partly drawn) [Compound 297] | 61400
43 | 66 | 86 | 87 | 110 |  | N#Cc1ccc(O[C@H]2CC[C@H](NC(=O)c3ccc(N4CC(CN5CCC6(CC5)COc5cc7c(cc5C6)C(=O)N(C5CCC(=O)NC5=O)C7=O)C4)nn3)CC2)cc1Cl (stereo partly drawn) [Compound 59] | 400

Further lines, the molecule ahead of its results:

Compound | inhibition at 0.01 µM (AR protein [1]) [%] | inhibition at 0.1 µM (AR protein [1]) [%] | inhibition at 0.01 µM (AR protein [2]) [%] | inhibition at 0.1 µM (AR protein [2]) [%] | IC50 (VCaP cells) [nM] | IC50 (LNCaP FGC cells) [nM] | IC50 (LNCaP FGC cells; Homo sapiens, LNCaP, 96 h) [nM]
COc1cc(O[C@H]2C(C)(C)[C@H](NC(=O)c3ccc(N4CCC(C#N)(CN5CCC6(CC5)COc5c6ccc6c5CN(C5CCC(=O)NC5=O)C6=O)CC4)cc3)C2(C)C)ccc1C#N (stereo partly drawn) [Compound 208] | 34 | 38 | 17 | 67 | 3.5 |  | 10
N#Cc1ccc(O[C@H]2CC[C@H](NC(=O)c3ccc(N4CCC5(CC(N6CCC7(CC6)COc6cc8c(cc67)C(=O)N(C6CCC(=O)NC6=O)C8=O)C5)C4)nn3)CC2)cc1Cl (stereo partly drawn) [Compound 54] | 24 | 76 | 75 | 85 | 47 |  | 1700
COc1cc(O[C@H]2CC[C@H](NC(=O)c3ccc(N4CCC(CN5CCC6(CC5)COc5c6ccc6c5C(=O)N(C5CCC(=O)NC5=O)C6=O)(OC)CC4)nn3)CC2)ccc1C#N (stereo partly drawn) [Compound 272] | 45 | 52 | 38 | 75 | 63 |  | 100
COc1cc(O[C@H]2C(C)(C)[C@H](NC(=O)c3ccc(N4CCC(F)(CN5CCC6(CC5)COc5cc7c(cc56)C(=O)N(C5CCC(=O)NC5=O)C7=O)CC4)cc3)C2(C)C)ccc1C#N (stereo partly drawn) [Compound 273] | 2 | 26 | -20 | 7 | 970 |  | 96400
N#Cc1ccc(O[C@H]2CC[C@H](NC(=O)c3ccc(N4CCC5(CCC(N6CCC7(CC6)COc6cc8c(cc67)C(=O)N(C6CCC(=O)NC6=O)C8=O)CC5)CC4)nn3)CC2)cc1Cl (stereo partly drawn) [Compound 51] | 13 | 49 | 83 | 90 | 18 |  | 400
CCOC1(CN2CCC3(CC2)COc2c3ccc3c2C(=O)N(C2CCC(=O)NC2=O)C3=O)CCN(c2ccc(C(=O)N[C@H]3C(C)(C)[C@H](Oc4ccc(C#N)c(OC)c4)C3(C)C)cc2)CC1 (stereo partly drawn) [Compound 295] | 1 | 44 | -4 | 37 | 20 |  | 370
CC1(C)[C@H](NC(=O)c2ccc(N3CCC(CN4CCC5(CC4)COc4c5ccc5c4CN(C4CCC(=O)NC4=O)C5=O)CC3)nn2)C(C)(C)[C@H]1Oc1ccc(C#N)c(Cl)c1 (stereo partly drawn) [Compound 210] | 61 | 59 | 28 | 71 | 2 |  | 8
